From publication PMC10004634 (PLOS ONE, 2023) come the findings set out here.

Among the targets are PHKG1 (Homo sapiens, UniProt Q16816); CAMK1G (Homo sapiens, UniProt Q96NX5); KIT (Homo sapiens, UniProt P10721).
Test in all cases: biochemical
Holding throughout (set-up): KINOMEscan scanMAX competition binding, DNA-tagged kinases, qPCR read-out, percent control at 300 nM

In a further assay the target is T1, AURKC (Homo sapiens, UniProt Q9UQB9).
T1 sequence (Q9UQB9 1-309): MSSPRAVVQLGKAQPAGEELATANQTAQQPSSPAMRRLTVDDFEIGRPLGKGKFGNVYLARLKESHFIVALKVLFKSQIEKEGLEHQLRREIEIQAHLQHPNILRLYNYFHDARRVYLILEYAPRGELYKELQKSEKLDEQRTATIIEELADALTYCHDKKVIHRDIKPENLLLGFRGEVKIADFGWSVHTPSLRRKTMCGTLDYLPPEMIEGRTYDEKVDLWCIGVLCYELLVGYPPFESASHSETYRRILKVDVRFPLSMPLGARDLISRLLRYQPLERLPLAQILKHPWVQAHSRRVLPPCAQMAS

A further assay concerns the target T2, EPHB6 (Homo sapiens, UniProt O15197).
T2 sequence (O15197 1-1021): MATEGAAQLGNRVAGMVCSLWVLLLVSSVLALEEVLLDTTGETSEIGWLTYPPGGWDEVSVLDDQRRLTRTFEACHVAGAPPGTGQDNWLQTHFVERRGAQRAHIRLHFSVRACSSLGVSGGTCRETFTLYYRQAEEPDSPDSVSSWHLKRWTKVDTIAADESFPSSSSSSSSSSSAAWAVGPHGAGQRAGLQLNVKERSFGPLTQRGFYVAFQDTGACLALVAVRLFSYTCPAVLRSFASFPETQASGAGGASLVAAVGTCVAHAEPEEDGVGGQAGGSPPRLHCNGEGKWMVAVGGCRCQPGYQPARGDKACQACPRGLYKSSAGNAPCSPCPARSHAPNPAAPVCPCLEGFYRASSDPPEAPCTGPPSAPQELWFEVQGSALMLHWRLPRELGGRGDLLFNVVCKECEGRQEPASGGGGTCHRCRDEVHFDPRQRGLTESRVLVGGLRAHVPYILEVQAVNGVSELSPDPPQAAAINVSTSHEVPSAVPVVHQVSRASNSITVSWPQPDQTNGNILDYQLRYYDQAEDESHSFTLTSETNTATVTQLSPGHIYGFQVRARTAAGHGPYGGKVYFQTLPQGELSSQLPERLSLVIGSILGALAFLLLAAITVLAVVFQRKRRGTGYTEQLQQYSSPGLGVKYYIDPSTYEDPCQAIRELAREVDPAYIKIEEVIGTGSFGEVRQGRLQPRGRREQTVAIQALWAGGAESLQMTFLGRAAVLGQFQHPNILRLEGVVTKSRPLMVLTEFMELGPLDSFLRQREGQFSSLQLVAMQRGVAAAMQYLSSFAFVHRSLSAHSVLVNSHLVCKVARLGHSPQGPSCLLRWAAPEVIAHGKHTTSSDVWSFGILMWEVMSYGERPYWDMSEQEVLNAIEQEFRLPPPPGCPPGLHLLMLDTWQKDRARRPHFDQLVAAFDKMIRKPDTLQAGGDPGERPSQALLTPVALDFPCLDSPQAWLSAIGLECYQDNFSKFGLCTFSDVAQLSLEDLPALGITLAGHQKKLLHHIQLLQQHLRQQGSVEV

In another assay the target is T3, PAK7 (Homo sapiens, UniProt Q9P286).
T3 construct: gene PAK5
T3 sequence (Q9P286 whole entry): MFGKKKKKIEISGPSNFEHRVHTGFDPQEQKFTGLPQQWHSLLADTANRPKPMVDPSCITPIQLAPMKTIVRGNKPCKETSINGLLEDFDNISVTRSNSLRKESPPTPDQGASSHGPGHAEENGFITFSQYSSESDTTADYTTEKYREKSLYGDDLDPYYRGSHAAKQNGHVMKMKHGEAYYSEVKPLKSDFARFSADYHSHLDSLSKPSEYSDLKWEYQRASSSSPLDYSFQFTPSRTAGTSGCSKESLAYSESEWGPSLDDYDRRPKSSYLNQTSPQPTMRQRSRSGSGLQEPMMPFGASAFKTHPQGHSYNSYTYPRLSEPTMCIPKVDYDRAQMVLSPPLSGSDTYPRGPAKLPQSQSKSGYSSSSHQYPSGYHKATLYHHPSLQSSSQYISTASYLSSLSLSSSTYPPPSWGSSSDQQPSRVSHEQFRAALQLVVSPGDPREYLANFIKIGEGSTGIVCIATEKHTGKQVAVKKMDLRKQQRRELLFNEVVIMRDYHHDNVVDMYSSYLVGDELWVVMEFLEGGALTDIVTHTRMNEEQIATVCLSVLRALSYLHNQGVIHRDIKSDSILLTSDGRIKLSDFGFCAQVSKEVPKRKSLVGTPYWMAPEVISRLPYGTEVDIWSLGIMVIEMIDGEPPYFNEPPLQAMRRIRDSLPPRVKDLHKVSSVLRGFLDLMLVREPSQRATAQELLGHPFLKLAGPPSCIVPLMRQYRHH

The target of a further assay is T4, ZAK (Homo sapiens, UniProt Q9NYL2).
T4 construct: gene MAP3K20
T4 sequence (Q9NYL2 whole entry): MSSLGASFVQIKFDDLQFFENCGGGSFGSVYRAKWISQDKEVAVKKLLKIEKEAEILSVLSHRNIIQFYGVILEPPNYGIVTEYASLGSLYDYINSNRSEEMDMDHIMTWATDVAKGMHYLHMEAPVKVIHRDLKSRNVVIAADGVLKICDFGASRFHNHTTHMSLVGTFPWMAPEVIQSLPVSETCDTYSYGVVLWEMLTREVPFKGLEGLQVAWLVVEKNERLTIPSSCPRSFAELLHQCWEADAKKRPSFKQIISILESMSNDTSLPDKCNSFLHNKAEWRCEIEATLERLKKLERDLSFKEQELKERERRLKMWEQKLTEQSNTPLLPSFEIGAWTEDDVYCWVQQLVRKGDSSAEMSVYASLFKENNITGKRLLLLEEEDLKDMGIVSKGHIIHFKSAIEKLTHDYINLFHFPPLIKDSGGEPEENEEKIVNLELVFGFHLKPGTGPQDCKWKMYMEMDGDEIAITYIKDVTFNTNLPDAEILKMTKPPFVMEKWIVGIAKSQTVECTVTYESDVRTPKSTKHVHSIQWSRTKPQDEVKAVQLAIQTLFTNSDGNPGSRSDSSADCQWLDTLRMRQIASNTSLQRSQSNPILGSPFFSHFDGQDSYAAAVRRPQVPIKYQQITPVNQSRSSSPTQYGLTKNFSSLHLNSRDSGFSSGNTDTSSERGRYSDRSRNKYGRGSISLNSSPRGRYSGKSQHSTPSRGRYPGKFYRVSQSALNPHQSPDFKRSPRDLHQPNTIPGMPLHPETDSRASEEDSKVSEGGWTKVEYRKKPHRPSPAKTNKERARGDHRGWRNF

The next assay addresses T5, AXL (Homo sapiens, UniProt P30530).
T5 sequence (P30530 1-894): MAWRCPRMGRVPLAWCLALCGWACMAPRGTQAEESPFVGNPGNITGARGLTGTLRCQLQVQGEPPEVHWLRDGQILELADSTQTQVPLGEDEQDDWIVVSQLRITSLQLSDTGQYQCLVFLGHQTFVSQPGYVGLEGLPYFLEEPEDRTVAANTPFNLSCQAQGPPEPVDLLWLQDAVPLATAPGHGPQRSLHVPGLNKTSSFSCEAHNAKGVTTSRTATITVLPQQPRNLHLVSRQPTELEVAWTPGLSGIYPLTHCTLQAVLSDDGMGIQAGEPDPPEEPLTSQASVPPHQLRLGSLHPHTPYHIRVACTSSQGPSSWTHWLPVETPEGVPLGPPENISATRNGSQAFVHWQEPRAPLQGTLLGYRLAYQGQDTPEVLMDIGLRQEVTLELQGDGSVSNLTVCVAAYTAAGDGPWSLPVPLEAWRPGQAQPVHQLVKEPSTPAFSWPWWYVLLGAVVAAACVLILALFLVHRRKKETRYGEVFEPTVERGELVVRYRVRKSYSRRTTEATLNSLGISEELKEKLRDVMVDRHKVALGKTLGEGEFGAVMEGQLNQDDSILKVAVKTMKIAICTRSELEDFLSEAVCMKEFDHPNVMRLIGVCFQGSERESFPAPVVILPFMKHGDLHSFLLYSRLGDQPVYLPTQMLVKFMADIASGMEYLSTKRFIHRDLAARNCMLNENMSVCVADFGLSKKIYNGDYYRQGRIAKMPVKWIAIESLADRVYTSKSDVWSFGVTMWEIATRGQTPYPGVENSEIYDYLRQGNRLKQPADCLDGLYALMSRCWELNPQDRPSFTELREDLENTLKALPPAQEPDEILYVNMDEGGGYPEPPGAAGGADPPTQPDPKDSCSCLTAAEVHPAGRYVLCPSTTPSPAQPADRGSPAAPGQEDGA

[1] abbreviates: read-out: Percent control / Acalabrutinib.
Where [2] appears, read: read-out: Percent control / Ibrutinib.
Setting [3] is: read-out: Percent control / Tirabrutinib.
Setting [4] is: read-out: Percent control / Zanubrutinib.

Read-outs that look alike come from different tables or passages of the source.

Sequence of CAMK1G (Q96NX5 whole entry): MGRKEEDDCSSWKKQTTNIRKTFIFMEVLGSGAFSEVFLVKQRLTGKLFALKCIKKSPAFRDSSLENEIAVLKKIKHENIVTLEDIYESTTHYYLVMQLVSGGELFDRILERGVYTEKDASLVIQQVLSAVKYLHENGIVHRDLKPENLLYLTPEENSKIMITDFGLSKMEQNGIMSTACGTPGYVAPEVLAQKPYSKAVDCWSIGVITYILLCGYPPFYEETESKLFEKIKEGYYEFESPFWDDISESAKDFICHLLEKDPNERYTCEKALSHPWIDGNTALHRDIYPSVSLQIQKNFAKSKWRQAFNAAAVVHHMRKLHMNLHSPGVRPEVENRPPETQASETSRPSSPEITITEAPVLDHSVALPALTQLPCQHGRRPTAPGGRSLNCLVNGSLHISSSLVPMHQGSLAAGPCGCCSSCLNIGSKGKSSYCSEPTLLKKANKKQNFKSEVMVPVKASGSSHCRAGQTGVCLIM
Sequence of KIT (P10721 whole entry): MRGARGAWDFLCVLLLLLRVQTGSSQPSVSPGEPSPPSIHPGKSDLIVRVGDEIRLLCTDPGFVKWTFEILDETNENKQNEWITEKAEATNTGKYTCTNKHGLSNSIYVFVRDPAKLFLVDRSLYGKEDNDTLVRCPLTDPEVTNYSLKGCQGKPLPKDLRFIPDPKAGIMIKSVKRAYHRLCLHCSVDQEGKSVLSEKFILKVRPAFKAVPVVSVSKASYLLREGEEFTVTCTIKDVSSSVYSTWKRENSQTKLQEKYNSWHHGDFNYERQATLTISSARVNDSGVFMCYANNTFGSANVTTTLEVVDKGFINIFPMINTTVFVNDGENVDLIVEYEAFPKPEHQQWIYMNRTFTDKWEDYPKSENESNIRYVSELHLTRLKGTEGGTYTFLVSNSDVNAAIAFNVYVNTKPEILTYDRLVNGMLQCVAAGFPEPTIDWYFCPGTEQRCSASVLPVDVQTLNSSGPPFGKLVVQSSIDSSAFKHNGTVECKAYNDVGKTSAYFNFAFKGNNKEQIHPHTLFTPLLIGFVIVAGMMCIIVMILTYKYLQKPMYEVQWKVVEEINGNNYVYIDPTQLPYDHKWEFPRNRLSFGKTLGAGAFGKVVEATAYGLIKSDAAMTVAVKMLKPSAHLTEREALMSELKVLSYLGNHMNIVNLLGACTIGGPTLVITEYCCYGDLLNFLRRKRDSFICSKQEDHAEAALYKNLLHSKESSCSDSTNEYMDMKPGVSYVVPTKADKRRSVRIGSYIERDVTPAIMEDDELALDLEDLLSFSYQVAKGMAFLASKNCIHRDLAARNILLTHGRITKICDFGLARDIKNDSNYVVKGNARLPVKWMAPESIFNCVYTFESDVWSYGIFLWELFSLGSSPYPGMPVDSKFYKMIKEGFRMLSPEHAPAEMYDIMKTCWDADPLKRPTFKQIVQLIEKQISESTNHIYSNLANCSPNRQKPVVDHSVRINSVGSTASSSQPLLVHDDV
Sequence of PHKG1 (Q16816 whole entry): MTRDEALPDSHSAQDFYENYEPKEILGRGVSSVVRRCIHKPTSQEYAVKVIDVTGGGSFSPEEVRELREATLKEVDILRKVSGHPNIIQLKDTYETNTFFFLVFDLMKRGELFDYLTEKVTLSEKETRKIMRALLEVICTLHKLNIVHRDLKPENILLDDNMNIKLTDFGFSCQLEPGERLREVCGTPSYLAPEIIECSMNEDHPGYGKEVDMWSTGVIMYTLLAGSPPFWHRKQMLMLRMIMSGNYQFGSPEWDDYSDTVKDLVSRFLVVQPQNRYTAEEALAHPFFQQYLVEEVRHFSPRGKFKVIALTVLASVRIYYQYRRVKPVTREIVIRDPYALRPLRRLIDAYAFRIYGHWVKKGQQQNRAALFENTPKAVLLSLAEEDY

`CC#CC(=O)N1CCC[C@H]1c1nc(-c2ccc(C(=O)Nc3ccccn3)cc2)c2c(N)nccn12` [Acalabrutinib]: the remaining binding at 0.3 µM was 64% on AURKC (setting [1]); 92% at PHKG1 (setting [1]); 85% at EPHB6 (setting [1]); 76% at PAK7 (setting [1]); 83% at ZAK (setting [1]); 97% at CAMK1G (setting [1]). In addition, the remaining binding at 0.3 µM on KIT (setting [1]) amounted to 91%; on AXL (setting [1]), 88%.

For `C=CC(=O)N1CCC[C@@H](n2nc(-c3ccc(Oc4ccccc4)cc3)c3c(N)ncnc32)C1` [Ibrutinib], the remaining binding at 0.3 µM on AURKC (setting [2]) came out at 54%; on EPHB6 (setting [2]), 46%; at PAK7 (setting [2]), 94%; at ZAK (setting [2]) it was 70%; at AXL (setting [2]), 85%.

Regarding `CC#CC(=O)N1CC[C@@H](n2c(=O)n(-c3ccc(Oc4ccccc4)cc3)c3c(N)ncnc32)C1` [Tirabrutinib], the remaining binding at 0.3 µM on AURKC (setting [3]) came to 65%; on PHKG1 (setting [3]), 83%; on EPHB6 (setting [3]), 70%; on CAMK1G (setting [3]), 98%; at KIT (setting [3]), 91%.

Turning to `C=CC(=O)N1CCC([C@@H]2CCNc3c(C(N)=O)c(-c4ccc(Oc5ccccc5)cc4)nn32)CC1` [Zanubrutinib], the remaining binding at 0.3 µM on AURKC (setting [4]) amounted to 97%; at PHKG1 (setting [4]), 67%; at EPHB6 (setting [4]), 96%; at PAK7 (setting [4]), 87%; on ZAK (setting [4]) it was 62%; at CAMK1G (setting [4]), 96%. In addition, the remaining binding at 0.3 µM on KIT (setting [4]) came out at 100%; on AXL (setting [4]), 91%.
